Results on 7 molecules are retold here after patent US10287275B2, “16-member triamilide derivatives and uses thereof” (VICTOR PHARMA CO., LTD. ZHENJIANG, priority 2015, dated 2019).

Common to all, as to type: cell-based
The subject of experiment [1] is Actinobacillus pleuropneumoniae serotype 1. Put plainly: Antibacterial MIC, agar-dilution or broth-dilution microtiter test. The conditions noted are these: Strain A: Actinobacillus pleuropneumoniae serotype 1. The method, then: (§1) The MIC's in Table I and Table II were determined by standard agar-dilution assays or broth-dilution microtiter test.
Experiment [2] deals with Actinobacillus pleuropneumoniae serotype 7. The description is as above. Conditions: Strain B: Actinobacillus pleuropneumoniae serotype 7. The protocol: as §1
Experiment [3] has as its system Escherichia coli 25922 (QC strain). Described as above. Conditions: Strain F: Escherichia coli 25922 (QC strain). The method, then:
as §1

The next experiment relates to Escherichia coli IN-F6-7. Described as above. Conditions: INF67; Strain E: Escherichia coli IN-F6-7. The method, then:
as §1

Experiment [4] deals with Klebsiella pneumoniae 3699. The experiment is described as above. Conditions: Strain K: Klebsiella pneumoniae 3699. The method, then:
as §1

Experiment [5] concerns Klebsiella pneumoniae 3753. The experiment is described as above. Conditions: Strain J: Klebsiella pneumoniae 3753. The method, then: as §1
The test system of another experiment is Pasteurella 8217. The description is as above. The conditions noted are these: Strain C: Pasteurella 8217. The method, then:
as §1

The subject of a further experiment is Pasteurella 8229. The description is as above. The conditions noted are these: Strain D: Pasteurella 8229. The method, then:
as §1

Experiment [6] deals with Staphylococcus aureus 29213 (QC strain). The description is as above. Conditions: Strain H: Staphylococcus aureus 29213 (QC strain). The method, then:
as §1

Experiment [7] deals with Staphylococcus aureus 5-1. The experiment is described as above. Conditions: 51; Strain G: Staphylococcus aureus 5-1. The method, then: as §1
In experiment [8] the test system is Streptococcus pneumoniae 2349. Described as above. The conditions noted are these: Strain L: Streptococcus pneumoniae 2349. The method, then: as §1
Experiment [9] has as its system Streptococcus pneumoniae 49619 (QC strain). The experiment is described as above. Conditions: Strain M: Streptococcus pneumoniae 49619 (QC strain). The protocol:
as §1

The test system of another experiment is salmonella LD4-8. Described as above. The conditions noted are these: LD48; Strain I: salmonella LD4-8. The method, then: as §1
The next experiment has as its system M. gallisepticum BG44T. The experiment is described as follows: Mycoplasma susceptibility testing (MIC). Conditions: Mycoplasmoides gallisepticum. The protocol: as §1
For a further experiment, the system named is M. gallisepticum S6. Put plainly: Mycoplasma susceptibility testing (MIC). Conditions: Mycoplasmoides gallisepticum. The protocol: as §1
A further experiment relates to M. hyorinis BTS-7. The experiment is described as follows: Mycoplasma susceptibility testing (MIC). The protocol: as §1

One may read the MIC as the lowest concentration found to suppress growth. A lower MIC goes with greater potency.

≈ marks a conversion by molar mass, not a printed value.

Turning to `CC[C@H]1OC(=O)C[C@@H](O)[C@H](C)[C@@H](O[C@@H]2O[C@H](C)[C@@H](O[C@H]3C[C@@](C)(O)[C@@H](O)[C@H](C)O3)[C@H](N(C)C)[C@H]2O)[C@@H](CC=O)C[C@@H](C)C(=O)/C=C/C(C)=C/[C@@H]1CO[C@@H]1O[C@H](C)[C@@H](O)[C@@H](OC)[C@H]1OC` [Tylosin, reference compound], the MIC in experiment [1] was 16 µg/mL (≈ 17.5 µM); in experiment [2], 8 µg/mL (≈ 8.73 µM); in [3] it was 256 µg/mL (≈ 279 µM); against Escherichia coli IN-F6-7, 256 µg/mL (≈ 279 µM); in experiment [4], > 256 µg/mL; in experiment [5], > 256 µg/mL. Besides, the minimal inhibitory concentration (MIC) is 32 µg/mL (≈ 34.9 µM) in the experiment on Pasteurella 8217; 32 µg/mL (≈ 34.9 µM) with Pasteurella 8229; 2 µg/mL (≈ 2.18 µM) in experiment [6]; > 256 µg/mL in experiment [7]; < 0.12 µg/mL in [8]; 2 µg/mL (≈ 2.18 µM) in experiment [9]. Moreover, the MIC against salmonella LD4-8 was > 256 µg/mL; against M. gallisepticum BG44T, < 0.12 µg/mL; in the experiment on M. gallisepticum S6, < 0.12 µg/mL; in the experiment with M. hyorinis BTS-7, 1.95 µg/mL (≈ 2.13 µM).

Turning to `CC[C@H]1OC(=O)C[C@@H](O)[C@H](C)[C@@H](O[C@@H]2O[C@H](C)[C@@H](O)[C@H](N(C)C)[C@H]2O)[C@@H](CCN2C[C@H](C)C[C@H](C)C2)C[C@@H](C)C(=O)/C=C/C(C)=C/[C@@H]1CO[C@@H]1O[C@H](C)[C@@H](O)[C@@H](OC)[C@H]1OC` [Tilmicosin, reference compound], the MIC in experiment [1] is 32 µg/mL (≈ 36.8 µM); in experiment [2], 32 µg/mL (≈ 36.8 µM); in [3], 8 µg/mL (≈ 9.2 µM); against Escherichia coli IN-F6-7 it was 16 µg/mL (≈ 18.4 µM); in [4] it was > 256 µg/mL; in [5], 64 µg/mL (≈ 73.6 µM). Besides, the MIC was 8 µg/mL (≈ 9.2 µM) in the experiment with Pasteurella 8217; 0.5 µg/mL (≈ 0.575 µM) with Pasteurella 8229; 0.5 µg/mL (≈ 0.575 µM) in experiment [6]; > 256 µg/mL in experiment [7]; 0.5 µg/mL (≈ 0.575 µM) in experiment [8]; 8 µg/mL (≈ 9.2 µM) in experiment [9]. Further, the MIC in the experiment on salmonella LD4-8 was 32 µg/mL (≈ 36.8 µM); with M. gallisepticum BG44T, < 0.12 µg/mL; in the experiment with M. gallisepticum S6, < 0.12 µg/mL; against M. hyorinis BTS-7 it was 3.91 µg/mL (≈ 4.5 µM).

Regarding `CC[C@H]1OC(=O)C[C@@H](O)[C@H](C)[C@@H](O[C@@H]2O[C@H](C)[C@@H](O)[C@H](N(C)C)[C@H]2O)[C@@H](CCN2CCCCC2)C[C@@H](C)C(=O)/C=C/C(C)=C/[C@@H]1CN(C)Cc1ccccc1` [Compound 4f, (4R,5S,6S,7R,9R,11E,13E,15R,16R)-15-((benzyl(methyl)amino)methyl)-6-(((2R,3R,4S,5S,6R)-4-(dimethylamino)-3,5-dihydroxy-6-methyltetrahydro-2H-pyran-2-yl)oxy)-16-ethyl-4-hydroxy-5,9,13-trimethyl-7-(2-(piperidin-1-yl)ethyl)oxacyclohexadeca-11,13-diene-2,10-dione], the MIC is 16 µg/mL (≈ 20.8 µM) in [1]; 64 µg/mL (≈ 83.1 µM) in [2]; 4 µg/mL (≈ 5.19 µM) in [3]; 4 µg/mL (≈ 5.19 µM) in the experiment with Escherichia coli IN-F6-7; > 256 µg/mL in [4]; 32 µg/mL (≈ 41.6 µM) in experiment [5]. For the same molecule, the MIC in the experiment on Pasteurella 8217 was < 0.12 µg/mL; in the experiment on Pasteurella 8229, 0.12 µg/mL (≈ 0.156 µM); in experiment [6], 2 µg/mL (≈ 2.6 µM); in [7], 128 µg/mL (≈ 166 µM); in [8], < 0.12 µg/mL; in experiment [9], 0.5 µg/mL (≈ 0.649 µM). Besides, the MIC against salmonella LD4-8 was 4 µg/mL (≈ 5.19 µM); against M. gallisepticum BG44T it was < 0.12 µg/mL; against M. gallisepticum S6 it was 0.24 µg/mL (≈ 0.312 µM); against M. hyorinis BTS-7, 0.98 µg/mL (≈ 1.27 µM).

With `CCCCNC[C@H]1/C=C(C)/C=C/C(=O)[C@H](C)C[C@H](CCN2CCCCC2)[C@H](O[C@@H]2O[C@H](C)[C@@H](O)[C@H](N(C)C)[C@H]2O)[C@@H](C)[C@H](O)CC(=O)O[C@@H]1CC` [Compound 4c, (4R,5S,6S,7R,9R,11E,13E,15R,16R)-15-((butylamino)methyl)-6-(((2R,3R,4S,5S,6R)-4-(dimethylamino)-3,5-dihydroxy-6-methyltetrahydro-2H-pyran-2-yl)oxy)-16-ethyl-4-hydroxy-5,9,13-trimethyl-7-(2-(piperidin-1-yl)ethyl)oxacyclohexadeca-11,13-diene-2,10-dione], the MIC in experiment [1] was 64 µg/mL (≈ 88.6 µM); in experiment [2], 128 µg/mL (≈ 177 µM); in experiment [3], 16 µg/mL (≈ 22.2 µM); against Escherichia coli IN-F6-7, 16 µg/mL (≈ 22.2 µM); in [4], > 256 µg/mL; in [5], 128 µg/mL (≈ 177 µM). The MIC against Pasteurella 8217 was 4 µg/mL (≈ 5.54 µM); in the experiment with Pasteurella 8229, 4 µg/mL (≈ 5.54 µM); in [6], 64 µg/mL (≈ 88.6 µM); in [7], > 256 µg/mL; in experiment [8] it was 2 µg/mL (≈ 2.77 µM); in experiment [9], 256 µg/mL (≈ 355 µM). The MIC in the experiment on salmonella LD4-8 came out at 32 µg/mL (≈ 44.3 µM); against M. gallisepticum BG44T, 7.82 µg/mL (≈ 10.8 µM); against M. gallisepticum S6, 15.6 µg/mL (≈ 21.6 µM); in the experiment on M. hyorinis BTS-7 it was 31.2 µg/mL (≈ 43.3 µM).

Regarding `CC[C@H]1OC(=O)C[C@@H](O)[C@H](C)[C@@H](O[C@@H]2O[C@H](C)[C@@H](O)[C@H](N(C)C)[C@H]2O)[C@@H](CCN2CCCCC2)C[C@@H](C)C(=O)/C=C/C(C)=C/[C@@H]1CNCc1ccccc1` [Compound 4e, (4R,5S,6S,7R,9R,11E,13E,15R,16R)-15-((benzylamino)methyl)-6-(((2R,3R,4S,5S,6R)-4-(dimethylamino)-3,5-dihydroxy-6-methyltetrahydro-2H-pyran-2-yl)oxy)-16-ethyl-4-hydroxy-5,9,13-trimethyl-7-(2-(piperidin-1-yl)ethyl)oxacyclohexadeca-11,13-diene-2,10-dione], the MIC was 256 µg/mL (≈ 339 µM) in experiment [1]; 256 µg/mL (≈ 339 µM) in experiment [2]; 256 µg/mL (≈ 339 µM) in [3]; 256 µg/mL (≈ 339 µM) in the experiment on Escherichia coli IN-F6-7; > 256 µg/mL in experiment [4]; > 256 µg/mL in experiment [5]. Moreover, the MIC against Pasteurella 8217 came out at 32 µg/mL (≈ 42.3 µM); with Pasteurella 8229, 16 µg/mL (≈ 21.2 µM); in [6], 64 µg/mL (≈ 84.7 µM); in experiment [7] it was 256 µg/mL (≈ 339 µM); in experiment [8] it was 64 µg/mL (≈ 84.7 µM); in experiment [9], 256 µg/mL (≈ 339 µM). Moreover, in the experiment on salmonella LD4-8, the minimum inhibitory concentration (MIC) is > 256 µg/mL.

As for `CC[C@H]1OC(=O)C[C@@H](O)[C@H](C)[C@@H](O[C@@H]2O[C@H](C)[C@@H](O)[C@H](N(C)C)[C@H]2O)[C@@H](CCN2CCCCC2)C[C@@H](C)C(=O)/C=C/C(C)=C/[C@@H]1CN(CCO)CCO` [Compound 4g, (4R,5S,6S,7R,9R,11E,13E,15R,16R)-15-((bis(2-hydroxyethyl)amino)methyl)-6-(((2R,3R,4S,5S,6R)-4-(dimethylamino)-3,5-dihydroxy-6-methyltetrahydro-2H-pyran-2-yl)oxy)-16-ethyl-4-hydroxy-5,9,13-trimethyl-7-(2-(piperidin-1-yl)ethyl)oxacyclohexadeca-11,13-diene-2,10-dione], the MIC was 256 µg/mL (≈ 340 µM) in experiment [1]; 256 µg/mL (≈ 340 µM) in experiment [2]; 256 µg/mL (≈ 340 µM) in [3]; 256 µg/mL (≈ 340 µM) with Escherichia coli IN-F6-7; > 256 µg/mL in [4]; > 256 µg/mL in [5]. The MIC was < 0.12 µg/mL in the experiment with Pasteurella 8217; 32 µg/mL (≈ 42.4 µM) against Pasteurella 8229; 128 µg/mL (≈ 170 µM) in experiment [6]; > 256 µg/mL in experiment [7]; 32 µg/mL (≈ 42.4 µM) in experiment [8]; > 256 µg/mL in experiment [9]. In the experiment with salmonella LD4-8, the lowest concentration to inhibit growth (MIC) was 128 µg/mL (≈ 170 µM).

As to `CC[C@H]1OC(=O)C[C@@H](O)[C@H](C)[C@@H](O[C@@H]2O[C@H](C)[C@@H](O)[C@H](N(C)C)[C@H]2O)[C@@H](CCN2CCCCC2)C[C@@H](C)C(=O)/C=C/C(C)=C/[C@@H]1CN1CCCC1` [Compound 4d, (4R,5S,6S,7R,9R,11E,13E,15R,16R)-6-(((2R,3R,4S,5S,6R)-4-(dimethylamino)-3,5-dihydroxy-6-methyltetrahydro-2H-pyran-2-yl)oxy)-16-ethyl-4-hydroxy-5,9,13-trimethyl-7-(2-(piperidin-1-yl)ethyl)-15-(pyrrolidin-1-ylmethyl)oxacyclohexadeca-11,13-diene-2,10-dione], the MIC (in [1]; in experiment [2]; in experiment [3]; with Escherichia coli IN-F6-7; in [4]; in experiment [5]) was > 256 µg/mL throughout. Besides, the MIC was 256 µg/mL (≈ 356 µM) in the experiment with Pasteurella 8217; 128 µg/mL (≈ 178 µM) in the experiment with Pasteurella 8229; 256 µg/mL (≈ 356 µM) in [6]; > 256 µg/mL in experiment [7]; 64 µg/mL (≈ 88.9 µM) in [8]; > 256 µg/mL in [9]. The MIC against salmonella LD4-8 is > 256 µg/mL.
